Experimental data reported in PMC11226702, “Time-resolved crystallography of boric acid binding to the active site serine of the β-lactamase CTX-M-14 and subsequent 1,2-diol esterification” (Communications Chemistry, 2024).

What was measured:
β-lactamase CTX-M-14 [1] = molecular target: T1, β-lactamase CTX-M-14 (Klebsiella pneumoniae, UniProt A0A0H3H219); experiment: time-resolved serial crystallography, formed in situ from Ser70-bound boric acid and glycerol (occupancy […]); IC50 is for boric acid combined with glycerol; format: biochemical
T1 construct: gene KPHS_p301310

β-lactamase CTX-M-14 [2] = molecular target: T1, β-lactamase CTX-M-14; experiment: time-resolved serial crystallography (bound to Ser70, occupancy up to […]); IC50 by photometric cefotaxime hydrolysis assay; format: biochemical

T1 sequence (A0A0H3H219 entry or part of it): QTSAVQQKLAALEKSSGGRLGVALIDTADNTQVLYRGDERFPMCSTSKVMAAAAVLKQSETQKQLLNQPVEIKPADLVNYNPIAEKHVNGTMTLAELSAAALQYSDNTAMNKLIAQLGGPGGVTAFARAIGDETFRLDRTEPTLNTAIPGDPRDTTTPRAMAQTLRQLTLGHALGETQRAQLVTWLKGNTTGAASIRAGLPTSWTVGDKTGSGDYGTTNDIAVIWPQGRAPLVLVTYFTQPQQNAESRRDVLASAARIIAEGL

Row | Compound | IC50 (β-lactamase CTX-M-14 [1]) [mM] | IC50 (β-lactamase CTX-M-14 [2]) [mM]
1 | OCC1COB(O)O1 (racemic) [GBE, glycerol boric acid diester] | 3.1 ± 0.4 | –
2 | OB(O)O [BAB, boric acid] | – | 2.9 ± 0.4
